From patent US8598122B2, “Antagonistic peptides for frizzled-1 and frizzled-2” (Universiteit Maastricht, priority 2009, dated 2013)
“Also recorded” adds a separate entry of the source. Where a SMILES comes first, the peptide text is derived from it.

Key:
hFzd-4 = target: T1, hFzd-4 (Homo sapiens, UniProt Q9ULV1); test: Luciferase activity in HEK293 superTOPflash cells overexpressing hFzd-4; format: cell-based; settings: 1.10^−8 M
T1 construct: expressed in transfected cells; host or cells: HEK293 superTOPflash, transient, pcDNA3.1/hygro
T1 sequence (Q9ULV1 37-537): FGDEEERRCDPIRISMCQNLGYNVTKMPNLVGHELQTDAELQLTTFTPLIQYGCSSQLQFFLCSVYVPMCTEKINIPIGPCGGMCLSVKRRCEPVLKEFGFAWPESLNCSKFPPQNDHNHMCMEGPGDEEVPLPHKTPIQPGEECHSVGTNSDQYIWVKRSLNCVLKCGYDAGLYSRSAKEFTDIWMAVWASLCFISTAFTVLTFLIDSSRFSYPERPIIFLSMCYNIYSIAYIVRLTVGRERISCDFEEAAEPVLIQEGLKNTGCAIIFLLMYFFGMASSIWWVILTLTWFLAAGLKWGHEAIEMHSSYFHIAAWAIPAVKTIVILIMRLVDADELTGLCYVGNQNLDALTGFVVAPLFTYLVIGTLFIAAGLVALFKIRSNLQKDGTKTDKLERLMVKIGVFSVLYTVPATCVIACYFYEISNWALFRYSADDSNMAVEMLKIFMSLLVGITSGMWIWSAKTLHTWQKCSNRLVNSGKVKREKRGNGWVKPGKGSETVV
Procedure: (§1) In FIG. 3, Panel E, the efficacy of UM206 to block the Wnt3a-induced activation of luciferase activity in HEK293 superTOPflash cells transfected with different Fzds is shown.
The cell lines were cultured in 75 cm^2 culture flasks (Corning, Schiphol, the Netherlands) in Dulbeco's modified essential medium with L-glutamine (2 mM), 10% fetal calf serum (Invitrogen, Merelbeke, Belgium), and 1% gentamycin (Sigma-Aldrich, Zwijndrecht, The Netherlands). Before starting the experiment, the cell lines were treated with plasmocin 25 μg/ml (Invivogen, Toulose, France) and tested with a mycoalert mycoplasma detection kit (Lonza, Rockland Me., USA). Cells were transiently transfected with Fugene6 (Roche, Indianapolis Ind., USA) with plasmid DNA, pcDNA3.1/hygro (Invitrogen) with frizzled-1/2/4 or Wnts 3a-5a or with pcDNA3.0 (Invitrogen) containing the β-catenin or frizzled-5 sequence. After transfection, the cells were cultured for 24 hours in conditioned medium, collected from the cultured L-cells, L-cells with Wnt3a or 5a (Invitrogen). At the same moment the antagonist was added.

mouse Fzd-2 = target: T2, mouse Fzd-2 (Mus musculus, UniProt Q9JIP6); test: Antagonism of Wnt3a activation of mouse Fzd-2 (data not shown); format: cell-based
T2 construct: expressed in transfected cells
Source text: as §1

C-FIT cells = test: Differentiation assay (α-SMA) with C-FIT cells; format: cell-based, rat
Source text: For this assay, we used the same C-FIT cells as for the migration assay to study a second component of wound healing, namely, differentiation of fibroblasts into myofibroblasts. When wound healing starts, cells called fibroblasts migrate into the scar. These cells have no contractile properties; however, they can differentiate into myofibroblasts, which can actively contract. To study which signals influence the transition from fibroblast into myofibroblasts, we treated the C-FIT cells and harvested them for mRNA isolation. Next, we tested them for the presence of specific markers for myofibroblasts by reverse transcription of the mRNA and subsequent quantitative PCR analysis, which are absent in fibroblasts. One of those markers is α-smooth muscle actin, which makes the cells contract.
RNA was isolated using the Trizol method (Invitrogen). For the RT-PCR, the RNA was transcribed to cDNA with iscript™ cDNA synthesis kit (Bio-Rad, Hercules Calif., USA), Syber green (Eurogentec, Ghent, Belgium) was used for the detection of cDNA levels and cyclophilin served as the house keeping gene. In Supplementary methods panel 5, the primer sequences are shown.

[1] = system: mice with myocardial infarction; test: Myocardial infarction model in mice, UM206 by osmotic minipump; format: in vivo
Procedure: All animals were subjected to extensive echocardiography studies for the assessment of myocardial infarct size, LV cavity dimensions and ventricular function. Echocardiography examination was performed under 2% isofluorane. Echocardiograms were recorded with Philips Sonos 5500 ultrasound system (Philips, Eindhoven, the Netherlands) using a 20-MHz linear probe.
The animals were anaesthetized with urethane ([…] body weight, i.p., Sigma-Aldrich) followed by intubation and connected to a rodent ventilator (Hugo Sachs, March-Hugstetten, Germany). Body temperature was maintained at 37° C. The mice were then allowed to stabilize prior to hemodynamic measurements. A high-fidelity catheter tip micromanometer (Mikro-tip1.4F, SPR-671; Millar Instruments, Houston TX, USA) was inserted through the right carotid artery into the left ventricular cavity. Ventricular pressure was measured. Maximal positive and negative pressure development (+dP/dt and −dP/dt) and heart rate were determined on a beat-to-beat basis. The heart was then stimulated by an i.v. ramp-infusion of dobutamine (Sigma-Aldrich) using a micro-injection pump (Model 200 Series, KdScientific, Boston, Mass., USA).
One-half of the hearts of the mice was embedded in paraffin and cut in 4 μm sections. The paraffin sections were rehydrated and washed in PBS. One section was stained with AZAN, allowing an accurate determination of the infarct size. To visualize the myofibroblasts in the infarct area, the sections were incubated with an antibody directed against a-smooth muscle actin (Sigma-Aldrich), followed by incubation with the peroxidase-conjugated secondary antibody (Vector laboratories). Nuclei were visualized by hematoxylin. Photos were taken with a Leica (CTR500, 63x/0.85) camera and analyzed with the Quantimet program (QWin/QGo). An examiner blinded to the groups of the animals obtained all measurements. For the experiments with Rhodamine-labeled UM206, frozen sections (4 μm) of mouse kidney and small intestine were used.

[2] = five weeks treatment, vs saline

T2 sequence (Q9JIP6 29-570): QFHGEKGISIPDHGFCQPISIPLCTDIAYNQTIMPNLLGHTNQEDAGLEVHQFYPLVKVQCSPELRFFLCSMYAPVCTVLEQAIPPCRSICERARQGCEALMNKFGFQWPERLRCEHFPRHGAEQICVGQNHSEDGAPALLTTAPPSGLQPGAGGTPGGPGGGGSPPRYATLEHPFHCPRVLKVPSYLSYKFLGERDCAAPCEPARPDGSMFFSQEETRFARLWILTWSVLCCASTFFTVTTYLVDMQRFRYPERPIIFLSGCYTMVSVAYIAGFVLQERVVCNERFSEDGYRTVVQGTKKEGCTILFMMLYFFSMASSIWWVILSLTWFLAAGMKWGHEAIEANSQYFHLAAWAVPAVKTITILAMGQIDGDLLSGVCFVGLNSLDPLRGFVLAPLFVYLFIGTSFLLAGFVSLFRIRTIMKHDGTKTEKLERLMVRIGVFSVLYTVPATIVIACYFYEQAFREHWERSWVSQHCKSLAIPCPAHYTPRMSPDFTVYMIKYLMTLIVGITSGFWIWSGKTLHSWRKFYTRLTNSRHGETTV

CSCC[C@H](NC(=O)CNC(=O)[C@H](CCC(=O)O)NC(=O)[C@H](CO)NC(=O)[C@@H](NC(=O)[C@H](CCCCN)NC(=O)[C@H](CC(N)=O)NC(=O)[C@H](CS)NC(C)=O)[C@@H](C)O)C(=O)N[C@@H](CC(=O)O)C(=O)NCC(=O)N[C@@H](CS)C(=O)N[C@@H](CCC(=O)O)C(=O)N[C@@H](CC(C)C)C(N)=O [UM206, Ac-Cys-Asn-Lys-Thr-Ser-Glu-Gly-Met-Asp-Gly-Cys-Glu-Leu-NH2] (Ac-CNKTSEGMDGCEL-NH2)
Effect on Wnt3a-induced luciferase activity, frizzled-4 (hFzd-4): no effect | Antagonizing activation of mouse Fzd-2 by Wnt3a (mouse Fzd-2): fully effective | Effect on Wnt3a/5a-induced differentiation (α-SMA levels) (C-FIT cells): completely blocks this differentiation | tangents on the pressure time curve (dP/dt) ([1]; Millar catheter in left ventricle, vs saline): significantly steeper | change of ejection fraction (echocardiography) ([1]; UM206-treated vs saline): doubling | reduction in end diastolic volume of the left ventricle ([1]; UM206-treated vs saline): 40% | AoD ([1]; echocardiography, AVG): 0.18 cm | EDV_L ([1]; echocardiography, AVG): 0.132 cm^3 | EF_L ([1]; echocardiography, AVG): 31.4% | ESV_L ([1]; echocardiography, AVG): 0.090 cm^3 | FS ([1]; echocardiography, AVG): 13.20% | IVS anterior ([1]; echocardiography, AVG): 8.10% | IVSd anterior wall ([1]; echocardiography, AVG): 0.07 cm | IVSd posterior wall ([1]; echocardiography, AVG): 0.09 cm | IVSs anterior wall ([1]; echocardiography, AVG): 0.07 cm | IVSs posterior wall ([1]; echocardiography, AVG): 0.14 cm | LVAs ([1]; echocardiography, AVG): 0.30 cm^2 | LVIDd ([1]; echocardiography, AVG): 0.59 cm | LVIDs ([1]; echocardiography, AVG): 0.52 cm | SV_L ([1]; echocardiography, AVG): 0.041 cm^3 | LVLd ([1]; echocardiography, AVG, first listing (r8)): 0.91 cm | LVLs ([1]; echocardiography, AVG, first listing (r10)): 0.86 cm | LVLd ([1]; echocardiography, AVG, second listing (r12)): 0.95 cm | LVLs ([1]; echocardiography, AVG, second listing (r13)): 0.89 cm | LVAd ([1]; echocardiography, mice post-MI, AVG): 0.38 cm^2 | mortality / survival after MI ([1]; five weeks after MI, 6 microgram/kg/day minipump, saline 35% died): not a single mouse had died; also recorded: completely prevented the mortality | wet lung weight of surviving saline-treated mice higher than in UM206-treated mice ([1]; five weeks post-MI): 40% | blood vessels in the infarct area [1, 2]: increased amount of blood vessels | collagen levels in the infarct area [1, 2]: reduced collagen levels | a-SMA levels in infarcts (qPCR, Western blotting) ([1]; five-week-old infarcts, vs saline): significantly higher | Diastolic pressure ([1]; hemodynamic measurements, AVG): 1.27 mmHg | Left ventricular pressure ([1]; hemodynamic measurements, AVG): 10.14 mmHg | Maximum negative slope ([1]; hemodynamic measurements, AVG): −2542.08 mmHg/sec | Maximum negative slope/pressure ([1]; hemodynamic measurements, AVG): 32.84 s⁻¹ | Maximum positive slope ([1]; hemodynamic measurements, AVG): 5343.84 mmHg/sec | Maximum positive slope/pressure ([1]; hemodynamic measurements, AVG): 69.13 s⁻¹ | Pressure of negative slope ([1]; hemodynamic measurements, AVG): −9.44 mmHg | Pressure of positive slope ([1]; hemodynamic measurements, AVG): 17.78 mmHg | Systolic pressure ([1]; hemodynamic measurements, AVG): 27.93 mmHg | Heart rate ([1]; hemodynamic measurements, mean of 26 animals): 106.32 beats/min | amount of myofibroblasts ([1]; in vivo model of myocardial infarction, in comparison to 4%): 20% | adverse effects of chronic administration ([1]; mouse, in vivo): did not observe any adverse effects | effects on other organs known to contain Fzd-2, including kidney and small intestine ([1]; mouse, in vivo): did not observe any effects | myofibroblast numbers in the infarct area relative to saline-treated mice ([1]; two weeks post-MI): more than four-fold; also recorded: four-fold | infarct area size ([1]; vs saline-treated mice, 2 and 5 weeks after MI): significantly smaller | thickness of the infarct area ([1]; vs saline, both time points): significantly thicker
